{
  "source": "patent US7745428B2",
  "about": "“Imidazo[1,2-A]pyridine having anti-cell-proliferation activity” (AstraZeneca AB, priority 2005, dated 2010)",
  "target": "T1, CDK2/Cyclin E (Homo sapiens, UniProt P24941)",
  "T1 construct": "The open reading frames of CDK2 and Cyclin E were isolated; made in house; host or cells: Sf21 (Spodoptera frugiperda) insect cells, baculovirus co-infection; substrate in E. coli BL21 (DE3) pLysS",
  "assay": "in vitro kinase assay (Scintillation Proximity Assay), CDK2/Cyclin E, GST-Rb substrate",
  "assay_type": "biochemical",
  "settings": "in-vitro SPA kinase assay, 0.2 μM ATP, room temperature, 60 minutes; read-out: CDK2 inhibitory activity (CDK2 enzyme)",
  "method": "The compounds were tested in an in vitro kinase assay in 96 well format using Scintillation Proximity Assay (SPA—obtained from Amersham) for measuring incorporation of [γ-33-P]-Adenosine Triphosphate into a test substrate (GST-Retinoblastoma protein; GST-Rb). In each well was placed the compound to be tested (diluted in DMSO and water to correct concentrations) and in control wells either roscovitine as an inhibitor control or DMSO as a […] control.\nApproximately 0.2 μl of CDK2/Cyclin E partially-purified enzyme (amount dependent on enzyme activity) diluted in 25 μl incubation buffer was added to each well then 20 μl of GST-Rb/ATP/ATP33 mixture (containing 0.5 μg GST-Rb and 0.2 μM ATP and 0.14 μCi[γ-33-P]-Adenosine Triphosphate in incubation buffer), and the resulting mixture shaken gently, then incubated at room temperature for 60 minutes. […]\nThe plates were sealed with Topseal-S plate sealers, left for two hours then spun at 2500 rpm, 1124×g., for 5 minutes. The plates were read on a Topcount for 30 seconds per well. […]\nThe open reading frames of CDK2 and Cyclin E were isolated by reverse transcriptase-PCR using HeLa cell and activated T cell mRNA as a template and cloned into the insect expression vector pVL1393 (obtained from Invitrogen 1995 catalogue number: V1392-20). […]",
  "data": [
    {"compound": "CN1CCN(C(=O)c2ccc(Nc3nccc(-c4cnc5ccccn45)n3)cc2)CC1", "note": "[Example 2, [4-(4-Imidazo[1,2-a]pyridin-3-yl-pyrimidin-2-ylamino)-phenyl]-(4-methyl-piperazin-1-yl)-methanone]", "values": [
      {"measurement": "IC50", "result": 90, "unit": "nM"}
    ]}
  ]
}
